The results in this text go back to patent publication US20240252488A1 (KOREA RESEARCH INSTITUTE OF CHEMICAL TECHNOLOGY, priority 2020, published 2024).

For one test, the system named is FADD−/− Jurkat cells. As to the kind of experiment: Necroptosis inhibition assay, TNF-α-induced necroptosis (CellTiter-Glo 2.0). The conditions noted are these: TNF-α 15 ng/mL; for Necroptosis inhibition assay (Rescue %) 1 μM: compound 1 μM; for Necroptosis inhibition assay (Rescue %) 10 μM: compound 10 μM. The test is classed as cell-based, human. In short, it runs like this: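 FADD−/− Jurkat cells preincubated 30 min at room temperature with compound at 0.1, 1 and 10 μM final, then stimulated with TNF-α (15 ng/mL final) for 20–24 h at 37 °C, 5% CO2. Viability read as ATP luminescence; cytotoxicity and necroptosis inhibition rate calculated from luminescence values.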
(In general: ATP-based viability assays read luminescence as a measure of living cells.)

In test [1] the target is T1, MLKL (Homo sapiens, UniProt Q8NB16).
T1 sequence (Q8NB16 1-471): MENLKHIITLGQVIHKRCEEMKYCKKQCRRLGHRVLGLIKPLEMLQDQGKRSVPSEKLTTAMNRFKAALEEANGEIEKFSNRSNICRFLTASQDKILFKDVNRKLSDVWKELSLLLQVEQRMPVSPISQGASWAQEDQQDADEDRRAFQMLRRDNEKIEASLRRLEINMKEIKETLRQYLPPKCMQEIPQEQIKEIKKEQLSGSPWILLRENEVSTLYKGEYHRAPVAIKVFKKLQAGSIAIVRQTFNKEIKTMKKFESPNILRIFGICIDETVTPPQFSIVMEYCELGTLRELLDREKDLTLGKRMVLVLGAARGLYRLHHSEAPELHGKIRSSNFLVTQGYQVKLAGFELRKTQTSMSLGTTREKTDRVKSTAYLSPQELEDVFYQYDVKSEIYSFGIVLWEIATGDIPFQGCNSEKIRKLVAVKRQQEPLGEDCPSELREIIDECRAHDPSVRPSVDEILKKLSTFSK
Nature of the test: Measurement of binding affinity with MLKL receptor (competitive binding assay, Kd). The arrangement: made in house; host or cells: HEK 293 cell line (T7 phage in E. coli BL21-derived host is also described). In a few lines: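 HEK 293-expressed, DNA-tagged MLKL; ligand beads blocked with biotin and SeaBlock/1% BSA/0.05% Tween 20/1 mM DTT buffer. Cpd from 111× DMSO stock, 0.9% DMSO final. Eluted kinase by qPCR → Kd.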

Test [2] addresses T1, MLKL. As to the kind of experiment: MLKL degradation assay in HepG2 cell line (western blot). The format is cell-based. The arrangement: endogenous in cells; host or cells: HepG2 or HaCaT. The conditions noted are these: cell line not given; for Degradation assay (Degradation %) 1 μM: compound 1 μM; for Degradation assay (Degradation %) 10 μM: compound 10 μM. In short, it runs like this: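 HepG2 cells were treated 20-24 h at 37 °C with compound at 1 or 10 μM final. RIPA lysates were normalized by BCA, and 10-15 μg protein per lane was resolved by SDS-PAGE. MLKL was detected by western blot with chemiluminescence.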
Background: In western blotting, separated proteins are transferred to a membrane and probed.

Each structure is given as a SMILES string.

As usually defined, the Kd is the equilibrium constant for the complex coming apart. Low readings indicate higher affinity, high ones lower affinity. As to `Nc1ncc(-c2cnn(C3CCN(C(=O)CC4CCN(C(=O)CC5CCN(c6ccc7c(c6)C(=O)N(C6CCC(=O)NC6=O)C7=O)CC5)CC4)CC3)c2)nc1C(=O)O[C@@H](C(=O)Nc1ccc(F)cc1)c1ccccc1` (stereo partly drawn) [TDH-402, (R)-2-((4-fluorophenyl)amino)-2-oxo-1-phenylethyl 3-amino-6-(1-(1-(2-(1-(2-(1-(2-(2,6-dioxopiperidin-3-yl)-1,3-dioxoisoindolin-5-yl)piperidin-4-yl)acetyl)piperidin-4-yl)acetyl)piperidin-4-yl)-1H-pyrazol-4-yl)pyrazine-2-carboxylate], in the test with FADD−/− Jurkat cells (FADD−/− Jurkat cells), the “Necroptosis inhibition assay (Rescue %) 1 μM” value was found to be 23.40% and the “Necroptosis inhibition assay (Rescue %) 10 μM” value worked out at 19.16%. Besides, the Kd on MLKL [1] was 7.7 nM. On MLKL [2], the “Degradation assay (Degradation %) 1 μM” value amounted to 65.36% and the “Degradation assay (Degradation %) 10 μM” value amounted to 48.34%.

Consider `Nc1ncc(-c2cnn(C3CCN(CCOCCNC(=O)C4CN(c5ccc6c(c5)C(=O)N(C5CCC(=O)NC5=O)C6=O)C4)CC3)c2)nc1C(=O)O[C@@H](C(=O)Nc1ccc(F)cc1)c1ccccc1` (stereo partly drawn) [TDH-127, (R)-2-((4-fluorophenyl)amino)-2-oxo-1-phenylethyl 3-amino-6-(1-(1-(2-(2-(1-(2-(2,6-dioxopiperidin-3-yl)-1,3-dioxoisoindolin-5-yl)azetidine-3-carboxamido)ethoxy)ethyl)piperidin-4-yl)-1H-pyrazol-4-yl)pyrazine-2-carboxylate], for which, in the test with FADD−/− Jurkat cells, the “Necroptosis inhibition assay (Rescue %) 1 μM” value was 34.64% and the “Necroptosis inhibition assay (Rescue %) 10 μM” value was 49.65%. This compound registered a Kd at MLKL [1] of 5.6 nM. Besides, at MLKL [2], the “Degradation assay (Degradation %) 1 μM” value came to 4.37% and the “Degradation assay (Degradation %) 10 μM” value is 43.64%.

As for `Nc1ncc(-c2cnn(C3CCN(C(=O)CC4CCN(C(=O)CNc5ccc6nnn(C7CCC(=O)NC7=O)c(=O)c6c5)CC4)CC3)c2)nc1C(=O)O[C@@H](C(=O)Nc1ccc(F)cc1)c1ccccc1` (stereo partly drawn) [TDH-405, (R)-2-((4-fluorophenyl)amino)-2-oxo-1-phenylethyl 3-amino-6-(1-(1-(2-(1-((3-(2,6-dioxopiperidin-3-yl)-4-oxo-3,4-dihydrobenzo[d][1,2,3]triazin-6-yl)glycyl)piperidin-4-yl)acetyl)piperidin-4-yl)-1H-pyrazol-4-yl)pyrazine-2-carboxylate], in the test on FADD−/− Jurkat cells (FADD−/− Jurkat cells), the “Necroptosis inhibition assay (Rescue %) 1 μM” value was 36.97% and the “Necroptosis inhibition assay (Rescue %) 10 μM” value is 37.28%. Further, binding on MLKL [1] was put at a Kd of 3.2 nM. For the same compound, on MLKL [2], the “Degradation assay (Degradation %) 1 μM” value amounted to 70.59% and the “Degradation assay (Degradation %) 10 μM” value was determined as 64.30%.

In the case of `COc1ccc(C(=O)NCC2CCC(CN3CCC(n4cc(-c5cnc(N)c(C(=O)O[C@@H](C(=O)Nc6ccc(F)cc6)c6ccccc6)n5)cn4)CC3)CC2)cc1N1CCC(=O)NC1=O` (stereo partly drawn) [TDH-497, (R)-2-((4-fluorophenyl)amino)-2-oxo-1-phenylethyl 3-amino-6-(1-(1-(((1r,4r)-4-((3-(2,4-dioxotetrahydropyrimidin-1(2H)-yl)-4-methoxybenzamido)methyl)cyclohexyl)methyl)piperidin-4-yl)-1H-pyrazol-4-yl)pyrazine-2-carboxylate], in the test on FADD−/− Jurkat cells (FADD−/− Jurkat cells), the “Necroptosis inhibition assay (Rescue %) 1 μM” value is given as 13.48% and the “Necroptosis inhibition assay (Rescue %) 10 μM” value is recorded as −1.14%. In addition, the Kd at MLKL [1] was 0.61 nM. For the same compound, at MLKL [2], the “Degradation assay (Degradation %) 1 μM” value was 73.89% and the “Degradation assay (Degradation %) 10 μM” value was determined as 57.10%.

Take `Nc1ncc(-c2cnn(C3CCN(CCc4cn(C5CCN(C(=O)COc6ccc7c(c6)C(=O)N(C6CCC(=O)NC6=O)C7=O)CC5)nn4)CC3)c2)nc1C(=O)O[C@@H](C(=O)Nc1ccc(F)cc1)c1ccccc1` (stereo partly drawn) [TDH-451, (R)-2-((4-fluorophenyl)amino)-2-oxo-1-phenylethyl 3-amino-6-(1-(1-(2-(1-(1-(2-((2-(2,6-dioxopiperidin-3-yl)-1,3-dioxoisoindolin-5-yl)oxy)acetyl)piperidin-4-yl)-1H-1,2,3-triazol-4-yl)ethyl)piperidin-4-yl)-1H-pyrazol-4-yl)pyrazine-2-carboxylate]: in the test with FADD−/− Jurkat cells (FADD−/− Jurkat cells), the “Necroptosis inhibition assay (Rescue %) 1 μM” value worked out at 19.55% and the “Necroptosis inhibition assay (Rescue %) 10 μM” value is 17.67%. In addition, on MLKL [1], the dissociation constant Kd was determined as 0.54 nM. In addition, on MLKL [2], the “Degradation assay (Degradation %) 1 μM” value turned out to be 64.37% and the “Degradation assay (Degradation %) 10 μM” value came to 50.39%.

For the compound `Nc1ncc(-c2cnn(C3CCN(CCOCCOCCNC(=O)COc4ccc5c(c4)C(=O)N(C4CCC(=O)NC4=O)C5=O)CC3)c2)nc1C(=O)O[C@@H](C(=O)Nc1ccc(F)cc1)c1ccccc1` (stereo partly drawn) [TDH-167, (R)-2-((4-fluorophenyl)amino)-2-oxo-1-phenylethyl 3-amino-6-(1-(1-(2-(2-(2-(2-((2-(2,6-dioxopiperidin-3-yl)-1,3-dioxoisoindolin-5-yl)oxy)acetamido)ethoxy)ethoxy)ethyl)piperidin-4-yl)-1H-pyrazol-4-yl)pyrazine-2-carboxylate], in the test on FADD−/− Jurkat cells, the “Necroptosis inhibition assay (Rescue %) 1 μM” value stood at 45.5% and the “Necroptosis inhibition assay (Rescue %) 10 μM” value came out at 38.58%. At MLKL [1], this compound registered a Kd of 1.7 nM. Moreover, at MLKL [2], the “Degradation assay (Degradation %) 1 μM” value is 36.7% and the “Degradation assay (Degradation %) 10 μM” value is given as 60.91%.

`Nc1ncc(-c2cnn(C3CCN(CCOCCNc4cccc5c4C(=O)N(C4CCC(=O)NC4=O)C5=O)CC3)c2)nc1C(=O)O[C@@H](C(=O)Nc1ccc(F)cc1)c1ccccc1` (stereo partly drawn) [TDH-130, (R)-2-((4-fluorophenyl)amino)-2-oxo-1-phenylethyl 3-amino-6-(1-(1-(2-(2-((2-(2,6-dioxopiperidin-3-yl)-1,3-dioxoisoindolin-4-yl)amino)ethoxy)ethyl)piperidin-4-yl)-1H-pyrazol-4-yl)pyrazine-2-carboxylate]: in the test with FADD−/− Jurkat cells, the “Necroptosis inhibition assay (Rescue %) 1 μM” value was found to be 40.74% and the “Necroptosis inhibition assay (Rescue %) 10 μM” value is 27.69%. The same compound came in with a Kd at MLKL [1] of 11 nM. In addition, at MLKL [2], the “Degradation assay (Degradation %) 1 μM” value was 58.3% and the “Degradation assay (Degradation %) 10 μM” value came to 24.87%.

Turning to `Nc1ncc(-c2cnn(C3CCN(CCCN4CCN(C(=O)CNc5cccc6c5C(=O)N(C5CCC(=O)NC5=O)C6=O)CC4)CC3)c2)nc1C(=O)OC(C(=O)Nc1ccc(F)cc1)c1ccccc1` (centres unmarked) [TDH-241, 2-((4-fluorophenyl)amino)-2-oxo-1-phenylethyl 3-amino-6-(1-(1-(3-(4-((2-(2,6-dioxopiperidin-3-yl)-1,3-dioxoisoindolin-4-yl)glycyl)piperazin-1-yl)propyl)piperidin-4-yl)-1H-pyrazol-4-yl)pyrazine-2-carboxylate], in the test on FADD−/− Jurkat cells, the “Necroptosis inhibition assay (Rescue %) 1 μM” value was determined as 50.09% and the “Necroptosis inhibition assay (Rescue %) 10 μM” value was 28.85%. This compound also yielded a Kd on MLKL [1] of 2.9 nM. On MLKL [2], the “Degradation assay (Degradation %) 1 μM” value is on record as 64.55% and the “Degradation assay (Degradation %) 10 μM” value amounted to 64.03%.

On to `Nc1ncc(-c2cnn(C3CCN(CC4CCN(C(=O)CCc5cccc6c5C(=O)N(C5CCC(=O)NC5=O)C6=O)CC4)CC3)c2)nc1C(=O)O[C@@H](C(=O)Nc1ccc(F)cc1)c1ccccc1` (stereo partly drawn) [TDH-336, (R)-2-((4-fluorophenyl)amino)-2-oxo-1-phenylethyl 3-amino-6-(1-(1-((1-(3-(2-(2,6-dioxopiperidin-3-yl)-1,3-dioxoisoindolin-4-yl)propanoyl)piperidin-4-yl)methyl)piperidin-4-yl)-1H-pyrazol-4-yl)pyrazine-2-carboxylate], for which, in the test with FADD−/− Jurkat cells, the “Necroptosis inhibition assay (Rescue %) 1 μM” value is 39.89% and the “Necroptosis inhibition assay (Rescue %) 10 μM” value came to 19.67%. This compound showed a Kd on MLKL [1] of 1.4 nM. At MLKL [2], the “Degradation assay (Degradation %) 1 μM” value turned out to be 73.04% and the “Degradation assay (Degradation %) 10 μM” value stood at 66.71%.

As to `Nc1ncc(-c2cnn(C3CCN(C(=O)C4CCN(c5ccc6c(c5)C(=O)N(C5CCC(=O)NC5=O)C6=O)CC4)CC3)c2)nc1C(=O)OC(C(=O)Nc1ccc(F)cc1)c1ccccc1` (centres unmarked) [TDH-280, 2-((4-fluorophenyl)amino)-2-oxo-1-phenylethyl 3-amino-6-(1-(1-(1-(2-(2,6-dioxopiperidin-3-yl)-1,3-dioxoisoindolin-5-yl)piperidine-4-carbonyl)piperidin-4-yl)-1H-pyrazol-4-yl)pyrazine-2-carboxylate], in the test on FADD−/− Jurkat cells, the “Necroptosis inhibition assay (Rescue %) 1 μM” value came out at 33.16% and the “Necroptosis inhibition assay (Rescue %) 10 μM” value turned out to be 19.54%. At MLKL [1], the Kd came out at 9.3 nM. On MLKL [2], the “Degradation assay (Degradation %) 1 μM” value came to 53.99% and the “Degradation assay (Degradation %) 10 μM” value was 39.22%.
